In ChEMBL document CHEMBL2086285, “Targeting the liver stage of malaria parasites: a yet unmet goal” (J Med Chem, 2012):
Values belong to the molecule of their own block, whether it stands above or below them.

What was measured:
Plasmodium cynomolgi = test: Antimalarial activity against Plasmodium cynomolgi M infected in rhesus monkey administered as po qd for 7 days; type: functional; conditions: in Macaca mulatta, 168 h
Plasmodium vivax = test: Antimalarial activity against Plasmodium vivax assessed as effect on cure rate after 28 days; type: functional
Plasmodium berghei [1] = test: Antimalarial activity against liver stages of Plasmodium berghei; type: functional, organism-based
Plasmodium yoelii [2] = test: Antimalarial activity against liver stages of Plasmodium yoelii 265 BY infected in Swiss mouse after 48 hrs by fluorescence microscopy; type: functional, organism-based
Plasmodium berghei [3] = test: Antimalarial activity against liver stages of Plasmodium berghei in human HepG2 cells assessed as growth inhibition at 10 ug/mL; type: functional; conditions: read-out: GI
Plasmodium yoelii yoelii = test: Antimalarial activity against liver stages of Plasmodium yoelii yoelii; type: functional, organism-based
Plasmodium falciparum = test: Antimalarial activity against liver stages of Plasmodium falciparum NF54 infected in human HepG2 cells after 6 days by fluorescence microscopy; type: functional, organism-based; conditions: NF54, HepG2, 144 h
Plasmodium berghei [4] = test: Antimalarial activity against liver stages of Plasmodium berghei assessed as inhibition of cytochrome bc1 complex; type: functional, organism-based
Plasmodium yoelii [5] = test: Antimalarial activity against liver stages of Plasmodium yoelii 17XNL expressing GFP infected in human HepG2 cells transfected with CD81 assessed as growth inhibition of hepatic parasite after 40 hrs by flow cytometry; type: functional, organism-based
[6] = Plasmodium yoelii, 265 BY, 48 h

SMILES: COc1cc(NC(C)CCCN)c2nccc(C)c2c1Oc1cccc(C(F)(F)F)c1 (stereo unspecified)
- ED50 (Plasmodium cynomolgi): 0.11 mg/kg

SMILES: CCC(CCCN)Nc1cc(OC)cc2c(C)ccnc12 (stereo unspecified)
- ED50 (Plasmodium cynomolgi): 0.074 mg/kg

SMILES: CCC[C@@H]1C[C@@H](C(=O)N[C@@H]([C@H]2O[C@H](SC)[C@H](O)[C@@H](O)[C@H]2O)[C@H](C)Cl)N(C)C1 [CLINDAMYCIN]
- Activity (Plasmodium vivax): 56%

SMILES: COc1cc(NCCCCCNC(C)C)c2nccc(C)c2c1
- ED50 (Plasmodium cynomolgi): 0.5 mg/kg

- IC50 (Plasmodium berghei [1]): 13 µM
SMILES: COc1cc(NC(C)CCCN)c2ncccc2c1 (stereo unspecified) [PRIMAQUINE]
- ED50 (Plasmodium cynomolgi): 0.38 mg/kg

- IC50 (Plasmodium yoelii [2]): 19 µM
SMILES: COc1cc(C)cc(OC)c1OC(C)[C@@H](O)c1ccc2c(c1)OC(F)(F)O2 (mixture of isomers; 145)

SMILES: COc1cccc2c(-c3ccc4c(c3O)[C@@H](C)N[C@H](C)C4)c(C)cc(OC)c12 [DIONCOPHYLLINE A]
- inhibition of growth at 10 µg/mL (Plasmodium berghei [3]): 67.5%

- IC50 (Plasmodium yoelii [2]): 5.62 µM
SMILES: COc1cc(C)cc(OC)c1OC(C)[C@@H](O)c1ccc2c(c1)OC(F)(F)O2 (mixture of isomers; 146)

- IC50 (Plasmodium yoelii yoelii): 0.0356 µM
SMILES: CC(N)C12CC3CC(CC(C3)C1)C2 (stereo unspecified) [RIMANTADINE]

SMILES: CCN(CC)CCCNc1cc(OC)cc2c(C)cc(C)nc12
- ED50 (Plasmodium cynomolgi): 0.36 mg/kg

SMILES: COc1c(-c2c(C)cc(OC)c3c(O)cccc23)ccc2c1[C@@H](C)N[C@H](C)C2
- inhibition of growth at 10 µg/mL (Plasmodium berghei [3]): 48.8%

SMILES: COc1cc(NCCCCC(C)N)c2nccc(C)c2c1 (stereo unspecified)
- ED50 (Plasmodium cynomolgi): 0.12 mg/kg

SMILES: COc1cc(NC(C)CCCN)c2nc(C)cc(C)c2c1 (stereo unspecified)
- ED50 (Plasmodium cynomolgi): 0.36 mg/kg

SMILES: COc1cc(NC(C)CCCN)c2nc(C)ccc2c1F (stereo unspecified)
- ED50 (Plasmodium cynomolgi): 0.21 mg/kg

SMILES: COc1cc(NC(C)CCCN)c2nc(C)ccc2c1Oc1cccc(C(F)(F)F)c1 (stereo unspecified)
- ED50 (Plasmodium cynomolgi): 0.36 mg/kg

- IC50 (Plasmodium yoelii [2]; [6]): 3.61 µM
- IC50 (Plasmodium falciparum): 0.007 µM
SMILES: COc1cc([C@H](O)[C@@H](C)Oc2c(OC)cc(-c3ccccc3)cc2OC)cc(OC)c1OC

SMILES: COc1cc(NC(C)CCCN)c2nc(C)ccc2c1 (stereo unspecified)
- ED50 (Plasmodium cynomolgi): 0.38 mg/kg

SMILES: COc1cc(NCCCC(C)N)c2nc(C)ccc2c1 (stereo unspecified)
- ED50 (Plasmodium cynomolgi): 0.21 mg/kg

- IC50 (Plasmodium yoelii yoelii): 7.95 µM
SMILES: CC[C@]1(O)C[C@@H]2CN(CCc3c([nH]c4ccccc34)[C@@](C(=O)OC)(c3cc4c(cc3OC)N(C)[C@H]3[C@@](O)(C(=O)OC)[C@H](OC(C)=O)[C@]5(CC)C=CCN6CC[C@]43[C@@H]65)C2)C1 [VINBLASTINE]

SMILES: COc1cc(NC(C)CCCNCc2ccc(CO[C@H]3O[C@@H]4O[C@@]5(C)CC[C@H]6[C@H](C)CCC([C@H]3C)[C@@]46OO5)cc2)c2ncccc2c1 (stereo partly specified)
- IC50 (Plasmodium berghei [1]): 0.155 µM

SMILES: COc1cc(NC(C)CCCN)c2nccc(C)c2c1OC (stereo unspecified)
- ED50 (Plasmodium cynomolgi): 0.098 mg/kg

SMILES: COc1cc(NC(C)CCCN)c2ncccc2c1Oc1ccc(F)cc1 (stereo unspecified)
- ED50 (Plasmodium cynomolgi): 0.23 mg/kg

SMILES: COc1cc(NCCCC(C)N)c2ncccc2c1Oc1cccc(C(F)(F)F)c1 (stereo unspecified)
- ED50 (Plasmodium cynomolgi): 0.5 mg/kg

SMILES: CCc1ccnc2c(NC(C)CCCN)cc(OC)cc12 (stereo unspecified)
- ED50 (Plasmodium cynomolgi): 0.45 mg/kg

SMILES: COc1cc(NC(C)CCCNC(C)C)c2nccc(C)c2c1 (stereo unspecified)
- ED50 (Plasmodium cynomolgi): 0.32 mg/kg

SMILES: COc1cc(NC(C)CCCN)c2nc(N)ccc2c1 (stereo unspecified)
- ED50 (Plasmodium cynomolgi): 0.36 mg/kg

SMILES: CN(C)[C@@H]1C(O)=C(C(N)=O)C(=O)[C@@]2(O)C(O)=C3C(=O)c4c(O)cccc4[C@@](C)(O)[C@H]3C[C@@H]12 [TETRACYCLINE]
- Activity (Plasmodium vivax): 56%

SMILES: COc1cc(NC(C)CCCN)c2ncccc2c1C(=O)C(F)(F)F (stereo unspecified)
- ED50 (Plasmodium cynomolgi): 0.44 mg/kg

SMILES: COc1cc(NC(C)CCCN)c2nccc(C)c2c1 (stereo unspecified)
- ED50 (Plasmodium cynomolgi): 0.2 mg/kg

- IC50 (Plasmodium yoelii [2]; [6]): 28.6 µM
SMILES: COc1cc([C@H](O)[C@H](C)Oc2c(OC)cccc2OC)cc(OC)c1OC

SMILES: C=Cc1ccnc2c(NC(C)CCCN)cc(OC)cc12 (stereo unspecified)
- ED50 (Plasmodium cynomolgi): 0.5 mg/kg

- IC50 (Plasmodium berghei [4]): 4.45 µM
SMILES: Cc1cccc2c1C(=O)C(O)=C(C[C@H](C)CCCCCC(F)(F)F)C2=O

- IC50 (Plasmodium yoelii yoelii): 0.000873 µM
SMILES: COCC(=O)O[C@]1(CCN(C)CCCc2nc3ccccc3[nH]2)CCc2cc(F)ccc2[C@@H]1C(C)C [MIBEFRADIL]

- IC50 (Plasmodium yoelii yoelii): 3.95 µM
SMILES: CC[C@H](C)[C@H](NC(=O)[C@H]([C@@H](C)CC)N(C)C(C)=O)C(=O)N[C@H](C(=O)N[C@@H](CC(C)C)C(=O)[C@@]1(C)CO1)[C@@H](C)O [EPOXOMYCIN]

SMILES: COc1cc(NC(C)CCCN)c2nc(C)ccc2c1Oc1ccc(Cl)cc1 (stereo unspecified)
- ED50 (Plasmodium cynomolgi): 0.19 mg/kg

- IC50 (Plasmodium yoelii yoelii): 0.0037 µM
SMILES: CC(CCc1ccc(O)cc1)NCCc1ccc(O)c(O)c1 (stereo unspecified) [DOBUTAMINE]

- IC50 (Plasmodium yoelii [2]; [6]): 20.1 µM
SMILES: COc1cccc(OC)c1OC(C)[C@@H](O)c1ccc2c(c1)OC(F)(F)O2 (mixture of isomers; 143)

- IC50 (Plasmodium berghei [4]): 0.0171 µM
SMILES: C[C@H](CCCCCC(F)(F)F)CC1=C(O)C(=O)c2ccccc2C1=O

SMILES: COc1cc([C@H](O)[C@H](C)Oc2c(OC)cc(C)cc2OC)cc(OC)c1OC
- IC50 (Plasmodium yoelii [2]; [6]): 50.1 µM

SMILES: CCC(N)CCCNc1cc(OC)cc2c(C)ccnc12 (stereo unspecified)
- ED50 (Plasmodium cynomolgi): 0.48 mg/kg

SMILES: COc1cc(NC(C)CCCN)c2nc(OCc3ccc(F)cc3)ccc2c1 (stereo unspecified)
- ED50 (Plasmodium cynomolgi): 0.35 mg/kg

SMILES: COc1cc(NC(C)CCCN)c2ncccc2c1Oc1cccc(C(F)(F)F)c1 (stereo unspecified)
- ED50 (Plasmodium cynomolgi): 0.25 mg/kg

- IC50 (Plasmodium berghei [4]): 0.246 µM
SMILES: CCCCCC[C@@H](C)CC1=C(O)C(=O)c2c(C)cccc2C1=O

- IC50 (Plasmodium yoelii [2]): 20.2 µM
SMILES: COc1cccc(OC)c1OC(C)[C@@H](O)c1ccc2c(c1)OC(F)(F)O2 (mixture of isomers; 144)

SMILES: COc1cc(NC(C)CCCN)c2nccc(C)c2c1F (stereo unspecified)
- ED50 (Plasmodium cynomolgi): 0.36 mg/kg

SMILES: COc1cc(NCCCC(C)N)c2nccc(C)c2c1 (stereo unspecified)
- ED50 (Plasmodium cynomolgi): 0.11 mg/kg

SMILES: CCN(CC)CCCCCCNc1cc(OC)cc2c(C)ccnc12 [SITAMAQUINE]
- ED50 (Plasmodium cynomolgi): 0.35 mg/kg

SMILES: Oc1c(Cl)cc(Cl)c(Cl)c1Cc1c(O)c(Cl)cc(Cl)c1Cl [HEXACHLOROPHENE]
- IC50 (Plasmodium yoelii [5]): 4 µM

SMILES: CO[C@H]1/C=C/O[C@@]2(C)Oc3c(C)c(O)c4c(O)c(c(/C=N/N5CCN(C)CC5)c(O)c4c3C2=O)NC(=O)/C(C)=C\C=C\[C@H](C)[C@H](O)[C@@H](C)[C@@H](O)[C@@H](C)[C@H](OC(C)=O)[C@@H]1C [RIFAMPIN]
- IC50 (Plasmodium yoelii [5]): 22.2 µM

- IC50 (Plasmodium berghei [4]): 0.0962 µM
SMILES: CCCCCC[C@@H](C)CC1=C(O)C(=O)c2ccccc2C1=O

SMILES: COc1cc(NC(C)CCCN)c2nc(C)ccc2c1Oc1ccc(F)cc1 (stereo unspecified)
- ED50 (Plasmodium cynomolgi): 0.22 mg/kg

SMILES: CCN(CC)CCCCC(C)Nc1cc(OC)cc2c(C)ccnc12 (stereo unspecified)
- ED50 (Plasmodium cynomolgi): 0.23 mg/kg

- IC50 (Plasmodium yoelii [2]; [6]): 2.52 µM
SMILES: COc1cc([C@H](O)[C@@H](C)Oc2c(OC)cccc2OC)cc(OC)c1OC

SMILES: CCN(CC)CCCNc1cc(OC)cc2c(C)ccnc12
- ED50 (Plasmodium cynomolgi): 0.51 mg/kg

- IC50 (Plasmodium yoelii yoelii): 0.000927 µM
SMILES: C=CC(C)(C)c1cc(/C=C/C(=O)c2ccc(O)cc2)c(OC)cc1O [LICOAGROCHACONE A]

SMILES: COc1cc(NCCC(C)N)c2nccc(C)c2c1OC (stereo unspecified)
- ED50 (Plasmodium cynomolgi): 0.12 mg/kg

- IC50 (Plasmodium yoelii [2]; [6]): 3.54 µM
- IC50 (Plasmodium falciparum): 0.02 µM
SMILES: COc1cc([C@H](O)[C@H](C)Oc2c(OC)cc(-c3ccccc3)cc2OC)cc(OC)c1OC

SMILES: CCOc1c(OC)cc(NC(C)CCCN)c2ncccc12 (stereo unspecified)
- ED50 (Plasmodium cynomolgi): 0.18 mg/kg

SMILES: COc1c2c(cc(O)c1-c1c(C)cc(OC)c3c(OC)cccc13)C[C@@H](C)N=C2C [ANCISTROBARTERINE A]
- inhibition of growth at 10 µg/mL (Plasmodium berghei [3]): 51.6%

SMILES: COc1cc([C@H](O)[C@@H](C)Oc2c(OC)cc(C)cc2OC)cc(OC)c1OC
- IC50 (Plasmodium yoelii [2]; [6]): 0.0045 µM
- IC50 (Plasmodium falciparum): 0.38 µM

SMILES: COc1cc(NC(C)CCCN)c2nc(OCc3ccc(C(F)(F)F)cc3)ccc2c1 (stereo unspecified)
- ED50 (Plasmodium cynomolgi): 0.5 mg/kg

SMILES: COc1c(C)nc(C)c2c(OC)c(-c3c(C)cc(OC)c4c(OC)cccc34)ccc12 [DIONCOPHYLLACINE A]
- inhibition of growth at 10 µg/mL (Plasmodium berghei [3]): 41.9%

SMILES: COc1ccc(-c2c(C)cc(OC)c3c(O)cccc23)c2c1[C@@H](C)N(C=O)[C@H](C)C2
- inhibition of growth at 10 µg/mL (Plasmodium berghei [3]): 98.3%

SMILES: COc1cc(C)c(-c2ccc(OC(=O)c3ccccc3)c3c2C[C@@H](C)N(C=O)[C@@H]3C)c2cccc(O)c12
- inhibition of growth at 10 µg/mL (Plasmodium berghei [3]): 52.7%

SMILES: COc1cc(NC(C)CCCCNC(C)C)c2nccc(C)c2c1 (stereo unspecified)
- ED50 (Plasmodium cynomolgi): 0.35 mg/kg

SMILES: COc1cc(NC(C)CCCN)c2ncccc2c1OC (stereo unspecified)
- ED50 (Plasmodium cynomolgi): 0.44 mg/kg

- IC50 (Plasmodium yoelii yoelii): 0.000846 µM
SMILES: CC(C)Nc1cccnc1N1CCN(C(=O)c2cc3cc(NS(C)(=O)=O)ccc3[nH]2)CC1 [DELAVIRDINE]
